Drawing on patent US11952330B2, “Antibiotic ammonium compounds and methods for the treatment of bacterial infections” (priority 2019, dated 2024), this text covers MIC for 27 molecules.

Where only a bound is given, the exact number is not on record here.

One experiment relates to S. aureus. Kind of experiment: MIC by broth dilution, S. aureus. In kind it is cell-based. The following applies: Staphylococcus aureus; Mueller-Hinton broth, overnight 37° C.; Table 1; read-out: MIC (μg/mL) S. aureus. As to the method:
(§1) The antibacterial efficacy of the ammonium compounds was assessed. Minimum inhibitory concentrations (MICs) were determined by broth dilution method. Dilutions of each compound, ranging from 1 μg/mL to 256 μg/mL (final concentrations) were prepared in Mueller-Hinton broth. Compound dilutions were added to wells of a 96-well plate, with the concentration of the compound increasing 2-fold by row. Each well contained 5×10^5 CFU/ml of target bacterium in a total volume of 100 μl. Plates were incubated overnight at 37° C. The following day, plates were evaluated for a visual change in growth to determine the MIC. The concentration value corresponding to the first row that no longer had visible bacterial growth, as evaluated by turbidity in the wells, was recorded as the MIC. MIC values were representative of at least biological duplicates, each made up of technical triplicates. The antibacterial efficacy of ammonium compounds in the presence of human plasma was assessed. Minimum inhibitory concentrations (MICs) were determined by broth dilution method. Dilutions of each compound, ranging from 1 μg/mL to 256 μg/mL (final concentrations) were prepared in Mueller-Hinton broth. For the plasma containing samples, compound dilutions were made in Mueller-Hinton broth and supplemented with 5% (final %) human plasma (esterases). Compound dilutions were added to wells of a 96-well plate, with the concentration of the compound increasing 2-fold by row. Each well contained 5×10^5 CFU/mL of target bacterium in a total volume of 100 μL. Plates were incubated overnight at 37° C. The following day, plates were evaluated for a visual change in growth to determine the MIC. The concentration value corresponding to the first row that no longer had visible bacterial growth, as evaluated by turbidity in the wells, was recorded as the MIC. MIC values were representative of at least biological duplicates, each made up of technical triplicates.
(In general: Dilution methods test growth across graded concentrations, often in twofold steps.)

For the next experiment, the system named is A. baumannii. The experiment is described as follows: MIC by broth dilution, A. baumannii. The format is cell-based. Conditions: Acinetobacter baumannii; Mueller-Hinton broth, overnight 37° C.; Table 1; read-out: MIC (μg/mL) A. baumannii. As to the method:
as §1

As to `CCCCCCCCOc1ccccc1C(=O)Nc1ccc(C(=O)OCC[N+](C)(CC)CC)cc1.[Br-]` [Compound 10, N,N-diethyl-N-methyl-2-((4-(2-(octyloxy)benzamido)benzoyl)oxy)ethan-1-aminium bromide, reference compound], the MIC in the experiment with S. aureus and with A. baumannii was 3 to 30 µg/mL each time.

Regarding `CCCCCCCCOc1ccccc1C(=O)Nc1cccc(C(=O)OCC[N+](C)(CC)CC)c1.[Br-]` [Compound 12, N,N-Diethyl-N-methyl-2-((3-(2-(octyloxy)benzamido)benzoyl)oxy)ethan-1-aminium bromide], the MIC in the experiment on S. aureus was 3 to 30 µg/mL; in the experiment with A. baumannii, > 30 µg/mL.

As to `CCCCCCCCOc1ccccc1C(=O)Nc1ccccc1C(=O)OCC[N+](C)(CC)CC.[Br-]` [Compound 13, N,N-Diethyl-N-methyl-2-((2-(2-(octyloxy)benzamido)benzoyl)oxy)ethan-1-aminium bromide], the MIC is 3 to 30 µg/mL in the experiment on S. aureus and > 30 µg/mL in the experiment with A. baumannii.

Turning to `CCCCCCCCOc1cccc(C(=O)Nc2ccc(C(=O)OCC[N+](C)(CC)CC)cc2)c1OCCCCCCCC.[Br-]` [Compound 14, 2-((4-(2,3-Bis(octyloxy)benzamido)benzoyl)oxy)-N,N-diethyl-N-methylethan-1-aminium bromide], the MIC with S. aureus and in the experiment on A. baumannii was > 30 µg/mL in each case.

In the case of `CCCCCCCCOc1ccc(C(=O)Nc2ccc(C(=O)OCC[N+](C)(CC)CC)cc2)c(OCCCCCCCC)c1.[Br-]` [Compound 15, 2-((4-(2,4-Bis(octyloxy)benzamido)benzoyl)oxy)-N,N-diethyl-N-methylethan-1-aminium bromide], the MIC with S. aureus and with A. baumannii was > 30 µg/mL each time.

For `CCCCCCCCOc1ccc(OCCCCCCCC)c(C(=O)Nc2ccc(C(=O)OCC[N+](C)(CC)CC)cc2)c1.[Br-]` [Compound 16, 2-((4-(2,5-Bis(octyloxy)benzamido)benzoyl)oxy)-N,N-diethyl-N-methylethan-1-aminium bromide], the MIC in the experiment on S. aureus and in the experiment on A. baumannii was > 30 µg/mL throughout.

In the case of `CCCCCCCCOc1cc(OCCCCCCCC)cc(C(=O)Nc2ccc(C(=O)OCC[N+](C)(CC)CC)cc2)c1.[Br-]` [Compound 18, 2-((4-(3,5-Bis(octyloxy)benzamido)benzoyl)oxy)-N,N-diethyl-N-methylethan-1-aminium bromide], the MIC in the experiment with S. aureus and with A. baumannii was > 30 µg/mL each time.

Take `CCCCOc1ccccc1C(=O)Nc1ccc(C(=O)OCC[N+](C)(CC)CC)cc1.[Br-]` [Compound 19, 2-((4-(2-Butoxybenzamido)benzoyl)oxy)-N,N-diethyl-N-methylethan-1-aminium bromide]: the MIC with S. aureus and in the experiment on A. baumannii was > 30 µg/mL throughout.

For the molecule `CCCCCOc1ccccc1C(=O)Nc1ccc(C(=O)OCC[N+](C)(CC)CC)cc1.[Br-]` [Compound 20, N,N-Diethyl-N-methyl-2-((4-(2-(pentyloxy)benzamido)benzoyl)oxy)ethan-1-aminium bromide], the MIC with S. aureus and with A. baumannii was > 30 µg/mL each time.

In the case of `CCCCCCOc1ccccc1C(=O)Nc1ccc(C(=O)OCC[N+](C)(CC)CC)cc1.[Br-]` [Compound 21, N,N-Diethyl-2-((4-(2-(hexyloxy)benzamido)benzoyl)oxy)-N-methylethan-1-aminium bromide], the values for the MIC in the experiment with S. aureus and in the experiment on A. baumannii were 3 to 30 µg/mL and > 30 µg/mL, respectively.

In the case of `CCCCCCCOc1ccccc1C(=O)Nc1ccc(C(=O)OCC[N+](C)(CC)CC)cc1.[Br-]` [Compound 22, N,N-Diethyl-2-((4-(2-(heptyloxy)benzamido)benzoyl)oxy)-N-methylethan-1-aminium bromide], the MIC is 3 to 30 µg/mL with S. aureus and > 30 µg/mL in the experiment with A. baumannii.

Consider `CCCCCCCCCOc1ccccc1C(=O)Nc1ccc(C(=O)OCC[N+](C)(CC)CC)cc1.[Br-]` [Compound 23, N,N-Diethyl-N-methyl-2-((4-(2-(nonyloxy)benzamido)benzoyl)oxy)ethan-1-aminium bromide], for which the MIC in the experiment with S. aureus and in the experiment with A. baumannii was 3 to 30 µg/mL throughout.

In the case of `CCCCCCCCCCOc1ccccc1C(=O)Nc1ccc(C(=O)OCC[N+](C)(CC)CC)cc1.[Br-]` [Compound 24, 2-((4-(2-(Decyloxy)benzamido)benzoyl)oxy)-N,N-diethyl-N-methylethan-1-aminium bromide], the figures for the MIC in the experiment on S. aureus and in the experiment on A. baumannii were 3 to 30 µg/mL and > 30 µg/mL, respectively.

Consider `CCCCCCCCCCCOc1ccccc1C(=O)Nc1ccc(C(=O)OCC[N+](C)(CC)CC)cc1.[Br-]` [Compound 25, N,N-Diethyl-N-methyl-2-((4-(2-(undecyloxy)benzamido)benzoyl)oxy)ethan-1-aminium bromide], for which the MIC with S. aureus was 3 to 30 µg/mL; with A. baumannii, > 30 µg/mL.

As to `CCCCCCCCCCCCOc1ccccc1C(=O)Nc1ccc(C(=O)OCC[N+](C)(CC)CC)cc1.[Br-]` [Compound 26, 2-((4-(2-(Dodecyloxy)benzamido)benzoyl)oxy)-N,N-diethyl-N-methylethan-1-aminium bromide], the MIC in the experiment on S. aureus was 3 to 30 µg/mL; in the experiment on A. baumannii, > 30 µg/mL.

As to `CCCCCCCCCCCCCOc1ccccc1C(=O)Nc1ccc(C(=O)OCC[N+](C)(CC)CC)cc1.[Br-]` [Compound 27, N,N-Diethyl-N-methyl-2-((4-(2-(tridecyloxy)benzamido)benzoyl)oxy)ethan-1-aminium bromide], the figures for the MIC with S. aureus and in the experiment with A. baumannii were < 3 µg/mL and > 30 µg/mL, respectively.

As for `CCCCCCCCCCCCCCOc1ccccc1C(=O)Nc1ccc(C(=O)OCC[N+](C)(CC)CC)cc1.[Br-]` [Compound 28, N,N-Diethyl-N-methyl-2-((4-(2-(tetradecyloxy)benzamido)benzoyl)oxy)ethan-1-aminium bromide], the MIC in the experiment with S. aureus was 3 to 30 µg/mL; with A. baumannii, > 30 µg/mL.

As to `CCCCCCCCOc1ccccc1C(=O)Nc1ccc(C(=O)OCC[N+](CC)(CC)CC)cc1.[Br-]` [Compound 29, N,N,N-Triethyl-2-((4-(2-(octyloxy)benzamido)benzoyl)oxy)ethan-1-aminium bromide], the MIC is 3 to 30 µg/mL in the experiment with S. aureus and > 30 µg/mL with A. baumannii.

As to `CCCCCCCCC[N+](CC)(CC)CCOC(=O)c1ccc(NC(=O)c2ccccc2OCCCCCCCC)cc1.[Br-]` [Compound 30, N,N-Diethyl-N-(2-((4-(2-(octyloxy)benzamido)benzoyl)oxy)ethyl)nonan-1-aminium bromide], the MIC in the experiment with S. aureus is 3 to 30 µg/mL; in the experiment on A. baumannii, > 30 µg/mL.

On to `CCCCCCCCOc1ccc(C(=O)Nc2ccc(C(=O)OCC[N+](C)(CC)CC)cc2)cc1.[Br-]` [Compound 31, N,N-Diethyl-N-methyl-2-((4-(4-(octyloxy)benzamido)benzoyl)oxy)ethan-1-aminium bromide], for which the MIC in the experiment with S. aureus and in the experiment with A. baumannii was > 30 µg/mL throughout.

In the case of `CCCCCCCCOc1cccc(C(=O)Nc2ccc(C(=O)OCC[N+](C)(CC)CC)cc2)c1.[Br-]` [Compound 32, N,N-Diethyl-N-methyl-2-((4-(3-(octyloxy)benzamido)benzoyl)oxy)ethan-1-aminium bromide], the MIC is 3 to 30 µg/mL in the experiment with S. aureus and > 30 µg/mL with A. baumannii.

For the molecule `CCCCCCCCOc1ccccc1C(=O)Nc1ccc(C(=O)OCC[N+](CC)(CC)CCC)cc1.[Br-]` [Compound 33, N,N-Diethyl-N-(2-((4-(2-(octyloxy)benzamido)benzoyl)oxy)ethyl)propan-1-aminium bromide], the MIC was < 3 µg/mL with S. aureus and 3 to 30 µg/mL in the experiment with A. baumannii.

On to `CCCCCCCCOc1ccccc1C(=O)Nc1ccc(C(=O)OCC[N+](CC)(CC)CCCC)cc1.[Br-]` [Compound 34, N,N-Diethyl-N-(2-((4-(2-(octyloxy)benzamido)benzoyl)oxy)ethyl)butan-1-aminium bromide], for which the MIC in the experiment on S. aureus is < 3 µg/mL; in the experiment with A. baumannii, 3 to 30 µg/mL.

As to `CCCCCCCCOc1ccccc1C(=O)Nc1ccc(C(=O)OCC[N+](CC)(CC)CCCCC)cc1.[Br-]` [Compound 35, N,N-Diethyl-N-(2-((4-(2-(octyloxy)benzamido)benzoyl)oxy)ethyl)pentan-1-aminium bromide], the figures for the MIC in the experiment with S. aureus and in the experiment with A. baumannii were < 3 µg/mL and 3 to 30 µg/mL, respectively.

On to `CCCCCCCCOc1ccccc1C(=O)Nc1ccc(C(=O)OCC[N+](CC)(CC)CCCCCC)cc1.[Br-]` [Compound 36, N,N-Diethyl-N-(2-((4-(2-(octyloxy)benzamido)benzoyl)oxy)ethyl)hexan-1-aminium bromide], for which the MIC with S. aureus was < 3 µg/mL; in the experiment with A. baumannii it was 3 to 30 µg/mL.

Take `CCCCCCCCOc1ccccc1C(=O)Nc1ccc(C(=O)OCC[N+](CC)(CC)CCCCCCC)cc1.[Br-]` [Compound 37, N,N-Diethyl-N-(2-((4-(2-(octyloxy)benzamido)benzoyl)oxy)ethyl)heptan-1-aminium bromide]: the figures for the MIC with S. aureus and in the experiment on A. baumannii were < 3 µg/mL and 3 to 30 µg/mL, respectively.

In the case of `CCCCCCCCOc1ccccc1C(=O)Nc1ccc(C(=O)OCC[N+](CC)(CC)CCCCCCCC)cc1.[Br-]` [Compound 38, N,N-Diethyl-N-(2-((4-(2-(octyloxy)benzamido)benzoyl)oxy)ethyl)octan-1-aminium bromide], the MIC in the experiment with S. aureus is < 3 µg/mL; in the experiment with A. baumannii, > 30 µg/mL.
